Reference: patent US20080318931A1, “Treatment of Disorders and Diseases of the Colon” (priority 2004, published 2008)

What was measured:
C-jun = C-jun expression in HT29 cells, western blot; assay type: cell-based, human; conditions: 10 and 20 μM, 24 hr
Method: (§1) The effect of paroxetine and sertraline on the expression of bcl-2 and C-jun was evaluated in human colon HT29 cell-line 24 hr after drug administration, using western blot analysis for C-jun and bcl-2 and specific antibodies.

[1] = test system: TH1 cytokines TNF-α, IL2 and INFγ; experiment: TH1 cytokine secretion (TNF-α, IL2, INFγ) from Con-A-induced splenocytes, ELISA; assay type: cell-based, mouse; conditions: 2.5-10 μM, 48 hours, 1×10^6 cells/well
Method: Effect of paroxetine, (SSRI) and clomipramine (TCA) as compared to dexamethasone on Con-A-induced splenocyte proliferation (alamar blue method), and splenocyte-induced secretion of TH1 cytokines TNF-α, IL2 and INFγ, 1×10^6 cells/well, was measured 48 hours after exposure to drugs (2.5-10 μM).
Cytokines were determined in the supernatant of the splenocyte specimens using an ELISA kit and protocol (Reagents by Cytolab). […] The pattern observed resembles that of dexamethasone.

human lymphocytes (PBMC) = experiment: PHA-induced human lymphocyte proliferation, alamar blue; assay type: cell-based; conditions: PHA 2.5 μg/ml, 48 hours
Method: Human blood mononuclear cells (PBMC) were isolated from whole blood of 3 healthy volunteers using Ficoll-Paque gradient (Amersham Sweden). Lymphocyte proliferation was induced by exposure of 1×10^6 cells/well to phytohemagglutinin (PHA) (2.5 μg/ml). Cells were exposed to PHA and treated with vehicle or with paroxetine (2.5-10.0 μM). Cell viability was assessed 48 hours post exposure to paroxetine (2.5-10.0 μM) using Alamar blue reagent (Wildflower, Santa Fe, N. Mex., USA) according to Nociari et al (1998).

[2] = test system: DSS-induced acute colitis; experiment: Rat model of DSS-induced acute colitis; assay type: in vivo; conditions: for number of days with significant DAI difference vs control: 9 days in water-treated DSS group
Method: Potential anti-IBD effect of two different doses of paroxetine, namely 0.2% and 0.4% was assessed in the rat model of DSS-induced acute colitis (DSS—dextran sulfate sodium). The use of DSS is a well-defined method for the induction of colitis' in animals. DSS can be controlled more precisely regarding molecular weight distribution, grade of sulfate incorporation and impurities than other agents typically used to achieve the same clinical end-point. This reagent model is suitable for screening of new drugs as it uses small animals, the oral administration of the agent is convenient to use in large groups of animals and the induced colitis responds to treatment with conventional drugs (see for example Axelsson et al, 1993).
Paroxetine (oral suspension, protected from light at or below 25° C.) was administered at two respective doses of 7.5 and 15 mg/kg by one daily repeated oral gavage (PO) for 16 days. Colitis induction commenced two days following initiation of treatment by continuous exposure ad libitum of the test animals to 3% DSS (36-50 kDa) in their drinking water (chlorinated and acidified, pH range of 5.1-5.9, freshly prepared on even test days). […] Two additional paroxetine-treated non-DSS induced groups were likewise treated with the same selected does to detect any unforeseen paroxetine related effects. Test groups comprised either n=8 (DSS induced) or n=4 (non-DSS induced) male Sprague Dawley (SD) rats (healthy, young […] weeks of age, total of 36 animals).
Evaluation of anti-IBD effect was based on the following […] parameters: a. Daily clinical scoring of the characteristic experimental colitis signs, consisting of body weight loss, altered fecal consistency and hematochezia and expressed as Disease Activity Index (DAI); b. Body weight determination; c. Colon length; d. Macroscopic colon lesions scores noted at necropsy; and e. microscopic colon lesions score.
The histological scoring system for the 3% DSS-induced colonic inflammation is shown below in Tables 1 and 2:
Final data evaluation was carried out by statistical analysis of differences between mean group values for each of the above listed parameters in the DSS-induced groups vs. respective mean values in the water-treated non-DSS induced group.

bcl-2 = bcl-2 expression in HT29 cells, western blot; assay type: cell-based, human; conditions: 10 and 20 μM, 24 hr
Method: as §1

Fc1ccc([C@@H]2CCNC[C@H]2COc2ccc3c(c2)OCO3)cc1 [paroxetine]
expression of C-jun (C-jun): stimulation | lymphocyte-induced pro-inflammatory cytokine secretion [1]: decrease | IC50 (human lymphocytes (PBMC)): 5 to 10 µM | mean body weight vs respective control ([2]; both doses (7.5 and 15 mg/kg PO), DSS-induced): did not reach statistical significance | mean colon length vs water-treated non-DSS induced group ([2]; both doses, p<0.05): significantly shorter | medians of histopathological scores (lateral and in-depth extension) ([2]; both doses, differences not statistically significant): lower than for the control group | day of peak DAI score ([2]; both paroxetine-treated DSS-induced groups): 10 days | mean macroscopic colon score vs control ([2]; high dose): did not significantly differ | number of days with significant DAI difference vs control ([2]; high paroxetine dose): 6 days | mortality ([2]; high-dose (15 mg/kg PO) DSS-induced group): No mortality | mean macroscopic colon score vs control ([2]; low dose, p<0.01): significantly higher | number of days with significant DAI difference vs control ([2]; low paroxetine dose): 5 days | overall anti-IBD effect ([2]; oral suspension, 7.5 and 15 mg/kg): trend of anti-IBD effect with a dose-response | mortality ([2]; the dose paroxetine-treated DSS-induced group, n=8, PO daily 16 days): one | expression of bcl-2 (bcl-2): inhibition
